Laboratory results as given in paper PMC8557901 (Microbiology Spectrum, 2021).

Assays:
[1] = tested on: P. falciparum F32-ART5 and F32-TEM; experiment: Recrudescence assay F32-ART5 versus F32-TEM; type: cell-based, Plasmodium falciparum; details: 48 h drug exposure; M1 2.5 and 10 μM; artemisinin 18 μM
Method: (§1) The Plasmodium falciparum artemisinin-resistant strain F32-ART5 and its twin artemisinin-sensitive line F32-TEM ([30], [31]) were cultivated at 37°C with 5% CO2 in human red blood cells (EFS [French Blood Bank]) diluted to 2% hematocrit in RPMI 1640 medium supplemented with 5% human serum (EFS) as previously reported ([47]).
A recrudescence assay was performed to evaluate the ability of the F32-ART5 parasite line to survive drug exposure in comparison to that of the F32-TEM parasite line ([30], [31]) in order to evaluate the risk of cross-resistance between artemisinin and M1. D-Sorbitol-synchronized ring-stage parasites at 3% parasitemia (2% hematocrit) were exposed to the drug for 48 h. After drug exposure, parasite cultures were washed with RPMI 1640 medium and replaced in normal drug-free culture conditions. The time to parasite recrudescence was determined as the time required to reach initial parasitemia. […] Each experiment, performed in parallel for F32-ART5 and F32-TEM cultivated under the same conditions to generate paired results, was carried out at least three times independently and data statistically analyzed.
A statistical analysis (log-rank test) was carried out on data from the recrudescence assay and the QSA using a Kaplan-Meier survival analysis considering censored data. The final event was defined as the time necessary for cultures to reach initial parasitemia. […]

[2] = tested on: P. falciparum F32-ART5 (artemisinin-resistant); experiment: Standard in vitro chemosensitivity assay (hypoxanthine uptake), F32-ART5; type: cell-based; details: Plasmodium falciparum, F32, 48 h, read-out: Mean EC50 ± SD
Method: as §1
(§2) In vitro susceptibility of P. falciparum parasites was determined by using the standard hypoxanthine uptake inhibition assay as described previously ([51]) with some modifications ([52]). After D-sorbitol treatment, parasites synchronized at the ring stage were exposed for 48 h, with [^3H]hypoxanthine (Perkin Elmer, France), to a range of concentrations of the different tested compounds. […] Each result represents 3 independent experiments.

[3] = tested on: P. falciparum F32-TEM (artemisinin-sensitive); experiment: Standard in vitro chemosensitivity assay (hypoxanthine uptake), F32-TEM; type: cell-based; details: Plasmodium falciparum, F32, 48 h, read-out: Mean EC50 ± SD
Method: as §1, §2

[4] = tested on: P. falciparum strain K1 in RBC; experiment: In vitro chemosensitivity assay, blood stage P. falciparum K1 (SYBR green I); type: cell-based; details: Plasmodium falciparum, K1, 72 h, read-out: EC50 (μM) for P. falciparum strain K1 in RBC
Method: Maintenance in continuous culture was done as described previously by Trager and Jensen ([46]). Cultures were maintained in fresh A+ human erythrocytes (EFS [French Blood Bank]) at 2.5% hematocrit in complete medium (RPMI 1640 with 25 mM HEPES, 25 mM NaHCO3, 10% A+ human serum) at 37°C under a reduced-O2 atmosphere (gas mixture of 10% O2, 5% CO2, and 85% N2). Parasitemia was maintained daily between 1% and 3%. The P. falciparum drug susceptibility test was carried out by comparing quantities of DNA in treated and control cultures of parasites in human erythrocytes according to a SYBR green I fluorescence-based method ([50]) using a 96-well fluorescence plate reader. Compounds, previously dissolved in DMSO (final concentration, less than 0.5% vol/vol), were incubated in a total assay volume of 200 μl of synchronized culture suspension (2% hematocrit and 0.4% parasitemia) for 72 h in a humidified atmosphere (85% N2, 10% O2, and 5% CO2) at 37°C in 96-well flat-bottom plates. Duplicate assays were performed for each sample. After incubation, plates were frozen at −20°C for 24 h. Then, the frozen plates were thawed for 1 h at 37°C. Fifteen microliters of each sample was transferred to 96-well flat-bottom black plates (Greiner Bio-one) already containing 15 μl of the SYBR green I lysis buffer (2× SYBR green I, 20 mM Tris base, pH 7.5, 20 mM EDTA, 0.008% [wt/vol] saponin, 0.08% [wt/vol] Triton X-100). […] Plates were incubated for 15 min at 37°C and then read on a Tecan Infinite F-200 spectrophotometer with excitation and emission wavelengths at 485 and 535 nm, respectively. […] EC50K1 values represent the mean values calculated from three independent experiments.

[5] = tested on: P. falciparum F32-ART5 quiescent parasites; experiment: Quiescent-stage survival assay (QSA); type: cell-based, Plasmodium falciparum; details: artemisinin 3 μM 6 h then artemisinin + CQ 200 nM versus artemisinin alone
Method: as §1
Chemosensitivity evaluation of artemisinin-resistant parasites at the quiescent stage was performed on the F32-ART5 strain using the quiescent-stage survival assay (QSA) ([33]). D-Sorbitol-synchronized ring-stage parasites at 3% parasitemia (2% hematocrit) were first exposed to 3 μM artemisinin for 6 h to induce quiescence of artemisinin-resistant parasites. Then, quiescent parasites were exposed or not (as a control condition) to 2.5 μM M1 for 24 h. After drug exposure, parasite cultures were washed with RPMI 1640 medium and replaced in normal drug-free culture conditions. The time to parasite recrudescence was determined as the time required to reach initial parasitemia. […] In each experiment, results obtained with the condition “artemisinin 3 μM 6 h/artemisinin 3 μM 24 h” were compared to those obtained with the condition “artemisinin 3 μM 6 h/(artemisinin 3 μM + M1 2.5 μM) 24 h” in order to determine the delay in recrudescence time. […] Each experiment was carried out three times independently, and data statistically analyzed. […]

[6] = tested on: Plasmodium berghei; parameters: method as in PMID 25791675; details: 2.5 mg/kg twice a day for 3 days; untreated group 9%; cited from earlier work

C[C@@H]1CC[C@H]2[C@@H](C)C(=O)O[C@@H]3O[C@@]4(C)CC[C@@H]1[C@]32OO4 [Artemisinin, reference compound]
recrudescence of F32-ART5 versus F32-TEM (cross-resistance with artemisinin) [1]: faster recrudescence for F32-ART5 than for F32-TEM
EC50 [2]: 11 ± 0.5 nM
EC50 [3]: 11.1 ± 1.6 nM

CCN(CC)CCCC(C)Nc1ccnc2cc(Cl)ccc12 (stereo not drawn) [Chloroquine, reference compound]
EC50 [4]: 0.8 µM
difference in recrudescence times versus artemisinin alone [5]: no difference in the recrudescence times
parasitemia at day 4 [6]: 1.5%
